Data reported in US20260345621A1, “GABAA RECEPTOR MODULATORS AND USES THEREOF” (Engrail Therapeutics, Inc., priority 2022, published 2026).
“Also recorded” adds a separate entry of the source.

Columns and labels:
EEG spectral bands = test: Pharmaco-EEG spectral analysis in wirelessly implanted rats
[1] = biological target: human GABAA receptor α2/β2/γ2 (Homo sapiens, UniProt P18507+P47869); test: SyncroPatch platform, PAM mode, GABAA α2/β2/γ2
[2] = biological target: human GABAA receptor α2/β3/γ2 (Homo sapiens, UniProt P18507+P47869); test: SyncroPatch platform, PAM mode, GABAA α2/β3/γ2
[3] = biological target: human GABAA receptor α3/β3/γ2 (Homo sapiens, UniProt P18507+P34903); test: SyncroPatch platform, PAM mode, GABAA α3/β3/γ2
[4] = biological target: human GABAA receptor α5/β3/γ2 (Homo sapiens, UniProt P18507+P31644); test: SyncroPatch platform, PAM mode, GABAA α5/β3/γ2
sleep stages = test: Sleep-stage analysis in wirelessly implanted rats; settings: Lorazepam 1 mg/kg IP
[5] = tested on: anxiety (elevated plus maze); test: Elevated plus maze (EPM)
alertness/sedation = test: MOAA/S (Modified Observer's Assessment Alertness/Sedation); format: in vivo, human (healthy volunteers)
Experimental: A clinical study was developed to evaluate safety, tolerability, pharmacokinetics, and pharmacodynamics of Compound 1 at plasma steady-state in 40 healthy human volunteers. Compound 1 (provided as Compound 1 phosphate) was administered to participants as multiple ascending doses of 0.5 mg (N=6), 1.0 mg (N=6), 1.5 mg (N=6), 2.0 mg (N=6), or 5.0 mg (N=6) once daily (QD) for 12 days.
Safety and tolerability of Compound 1 were assessed through listings and summaries by Compound 1 dose versus placebo (observed and change from baseline where applicable) for the following measures: treatment-emergent adverse events (TEAEs), clinical laboratory evaluation, vital signs, electrocardiogram, physical examination, pregnancy test, C-SSRS, and MOAA/S (Modified Observer's Assessment Alertness/Sedation). Continuous safety data were summarized with descriptive statistics (n, arithmetic mean, standard deviation (SD), median, minimum, and maximum) by dose level. Categorical safety data were summarized with incidence counts and percentages by dose level.
No clear difference from placebo in sedation across ascending Cohorts according to objective MOAA/S (Modified Observer's Assessment Alertness/Sedation) scoring was observed. A decrease in the MOAA/S score for alertness/sedation indicates impaired participant alertness and increased sedation as objectively determined by a clinician. […] For Compound 1 5.0 mg, a MOAA/S score of 2 (“Responds only after mild prodding or shaking”) was assessed for 1 participant. For the other participants in the Compound 1 5.0 mg Cohort and all other Cohorts, MOAA/S scores were above 3 indicating no difference from placebo in sedation across ascending Cohorts.

[6] = Frontal-Parietal cortex, Quiet Wake
[7] = participants receiving Compound 1

Sequence of human GABAA receptor α5/β3/γ2 (P31644 32-462): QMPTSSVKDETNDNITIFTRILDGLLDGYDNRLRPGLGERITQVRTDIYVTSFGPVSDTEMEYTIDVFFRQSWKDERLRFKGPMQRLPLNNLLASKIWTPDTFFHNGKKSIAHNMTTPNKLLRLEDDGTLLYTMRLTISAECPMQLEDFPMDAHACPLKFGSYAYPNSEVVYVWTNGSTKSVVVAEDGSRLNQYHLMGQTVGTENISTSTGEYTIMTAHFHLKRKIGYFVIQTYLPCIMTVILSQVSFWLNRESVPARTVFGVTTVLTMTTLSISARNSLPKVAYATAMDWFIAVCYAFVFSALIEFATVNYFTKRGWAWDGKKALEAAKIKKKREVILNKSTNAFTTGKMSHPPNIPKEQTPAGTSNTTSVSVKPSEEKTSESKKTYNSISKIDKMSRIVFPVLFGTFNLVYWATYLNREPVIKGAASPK
Sequence of human GABAA receptor α5/β3/γ2 (P18507 40-475): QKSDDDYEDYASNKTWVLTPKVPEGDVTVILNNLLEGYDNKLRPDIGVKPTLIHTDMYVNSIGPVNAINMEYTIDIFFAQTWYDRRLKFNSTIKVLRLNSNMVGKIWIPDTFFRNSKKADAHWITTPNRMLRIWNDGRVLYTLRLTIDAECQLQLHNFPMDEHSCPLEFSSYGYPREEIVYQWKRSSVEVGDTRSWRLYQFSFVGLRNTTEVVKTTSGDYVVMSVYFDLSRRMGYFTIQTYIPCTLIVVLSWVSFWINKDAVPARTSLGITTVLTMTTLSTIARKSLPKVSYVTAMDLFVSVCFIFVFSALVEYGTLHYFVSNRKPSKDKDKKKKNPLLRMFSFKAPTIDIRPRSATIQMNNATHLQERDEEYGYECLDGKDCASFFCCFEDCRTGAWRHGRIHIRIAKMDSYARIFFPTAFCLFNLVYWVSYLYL
Sequence of human GABAA receptor α5/β3/γ2 (P28472 26-473 partner): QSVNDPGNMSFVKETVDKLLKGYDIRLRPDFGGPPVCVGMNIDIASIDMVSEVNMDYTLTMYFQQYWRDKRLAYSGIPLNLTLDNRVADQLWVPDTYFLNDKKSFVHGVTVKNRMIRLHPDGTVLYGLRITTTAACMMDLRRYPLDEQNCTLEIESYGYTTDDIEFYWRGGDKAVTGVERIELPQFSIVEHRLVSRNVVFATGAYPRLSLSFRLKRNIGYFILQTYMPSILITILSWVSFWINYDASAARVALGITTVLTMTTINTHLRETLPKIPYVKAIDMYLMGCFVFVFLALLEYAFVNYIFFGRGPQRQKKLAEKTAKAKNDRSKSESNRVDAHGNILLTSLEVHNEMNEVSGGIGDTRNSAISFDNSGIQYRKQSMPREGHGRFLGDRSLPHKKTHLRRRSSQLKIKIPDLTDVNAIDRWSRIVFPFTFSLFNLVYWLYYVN
Sequence of human GABAA receptor α3/β3/γ2 (P34903 29-492): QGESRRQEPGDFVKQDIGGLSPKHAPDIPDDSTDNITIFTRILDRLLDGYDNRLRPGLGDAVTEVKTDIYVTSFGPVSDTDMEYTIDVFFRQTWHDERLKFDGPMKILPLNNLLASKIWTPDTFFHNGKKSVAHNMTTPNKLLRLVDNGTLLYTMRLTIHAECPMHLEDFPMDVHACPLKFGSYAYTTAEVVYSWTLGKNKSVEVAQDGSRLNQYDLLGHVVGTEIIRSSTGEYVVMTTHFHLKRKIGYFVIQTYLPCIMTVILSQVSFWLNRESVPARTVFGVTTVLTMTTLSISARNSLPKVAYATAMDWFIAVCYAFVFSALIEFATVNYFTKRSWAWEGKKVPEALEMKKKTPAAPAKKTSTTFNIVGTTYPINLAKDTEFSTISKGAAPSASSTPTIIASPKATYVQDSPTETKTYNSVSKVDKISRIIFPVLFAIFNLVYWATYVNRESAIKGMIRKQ
Sequence of human GABAA receptor α3/β3/γ2 (P18507 40-475): as the sequence (P18507 40-475) above
Sequence of human GABAA receptor α3/β3/γ2 (P28472 26-473 partner): as the sequence (P28472 26-473 partner) above
Sequence of human GABAA receptor α2/β3/γ2 (P47869 29-451): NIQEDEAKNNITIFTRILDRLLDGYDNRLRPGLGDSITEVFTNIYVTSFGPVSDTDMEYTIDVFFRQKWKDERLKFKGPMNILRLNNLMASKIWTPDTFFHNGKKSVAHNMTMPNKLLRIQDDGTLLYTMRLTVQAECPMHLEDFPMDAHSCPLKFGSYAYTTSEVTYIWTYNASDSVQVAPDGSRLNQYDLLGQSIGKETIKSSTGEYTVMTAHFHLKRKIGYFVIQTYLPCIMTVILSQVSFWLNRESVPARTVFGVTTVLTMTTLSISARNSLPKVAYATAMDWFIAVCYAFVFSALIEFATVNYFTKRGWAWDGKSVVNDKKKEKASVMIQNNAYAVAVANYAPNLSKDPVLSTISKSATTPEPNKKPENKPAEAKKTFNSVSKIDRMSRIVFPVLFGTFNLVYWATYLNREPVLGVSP
Sequence of human GABAA receptor α2/β3/γ2 (P18507 40-475): as the sequence (P18507 40-475) above
Sequence of human GABAA receptor α2/β3/γ2 (P28472 26-473 partner): as the sequence (P28472 26-473 partner) above
Sequence of human GABAA receptor α2/β2/γ2 (P47869 29-451): as the sequence (P47869 29-451) above
Sequence of human GABAA receptor α2/β2/γ2 (P18507 40-475): as the sequence (P18507 40-475) above
Sequence of human GABAA receptor α2/β2/γ2 (P47870 25-512 partner limits assumed): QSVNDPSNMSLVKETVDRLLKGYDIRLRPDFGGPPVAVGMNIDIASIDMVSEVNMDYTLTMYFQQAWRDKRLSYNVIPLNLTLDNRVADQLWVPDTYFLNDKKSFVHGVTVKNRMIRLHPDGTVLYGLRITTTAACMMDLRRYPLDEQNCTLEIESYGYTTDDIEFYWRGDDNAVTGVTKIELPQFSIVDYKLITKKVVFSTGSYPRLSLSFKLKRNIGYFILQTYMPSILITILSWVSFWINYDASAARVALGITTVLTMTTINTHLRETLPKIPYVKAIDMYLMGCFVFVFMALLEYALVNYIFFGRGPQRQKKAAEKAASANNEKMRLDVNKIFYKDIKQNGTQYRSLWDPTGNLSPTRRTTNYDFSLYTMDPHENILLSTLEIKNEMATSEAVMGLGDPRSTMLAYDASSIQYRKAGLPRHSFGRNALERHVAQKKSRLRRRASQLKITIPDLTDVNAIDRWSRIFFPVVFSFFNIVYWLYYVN

## CC(C)(O)c1cnn2c(-c3ccc(F)c(-c4c(F)cccc4C#N)c3)cnc2n1 [Compound 1, 2′,6-difluoro-5′-(3-(2-hydroxypropan-2-yl)imidazo[1,2-b][1,2,4]triazin-7-yl)-[1,1′-biphenyl]-2-carbonitrile]
EEG spectral bands; Frontal-Frontal cortex, Active and Quiet Wake
  EEG spectral power change: increased beta, low and high gamma
EEG spectral bands; Frontal-Frontal cortex, NREM
  EEG spectral power change: decreased theta and alpha; also recorded: decreased delta and increased low and high gamma
EEG spectral bands; Frontal-Frontal cortex, NREM, Compound 1 high dose PO, Lorazepam 1 mg/kg IP
  duration of EEG effects: 48 h
EEG spectral bands; Frontal-Frontal cortex, REM
  EEG spectral power change: increased beta
EEG spectral bands; Frontal-Parietal cortex, Active Wake
  EEG spectral power change: decreased alpha but increased beta, low and high gamma
EEG spectral bands; Frontal-Parietal cortex, NREM
  EEG spectral power change: decreased delta, theta, and alpha; also recorded: increase in low and high gamma
  duration of delta and theta effects: 48 h
  duration of increase in low and high gamma: 48 h
EEG spectral bands; [6]
  EEG spectral power change: decreased delta but increased beta, low and high gamma
  duration of EEG effects: 48 h
EEG spectral bands; Frontal-Parietal cortex, REM
  EEG spectral power change: decreased theta and alpha but increased beta and low gamma
EEG spectral bands; Non-REM sleep
  decrease in delta/theta power: 40%
EEG spectral bands; Non-REM sleep, all doses, ANOVA w Dunnett's
  delta and theta power: significant decreases in delta and theta power across all doses
EEG spectral bands; oral dosing, rats
  EEG profile: EEG changes indicative of an anxiolytic profile
EEG spectral bands; sleep-wake pattern and EEG profile analysis
  sedation / anxiolytic profile: non-sedative anxiolytic profile
EEG spectral bands; summary, Active Wake
  EEG spectral power change: increased low gamma and decreased alpha (Parietal ctx)
EEG spectral bands; summary, Non-REM
  EEG spectral power change: suppressed power in low frequencies (Delta, Theta, and Alpha) and increased higher frequencies (gamma)
EEG spectral bands; summary, Quiet Wake
  EEG spectral power change: increased beta and low gamma
EEG spectral bands; summary, REM
  EEG spectral power change: increased beta
[1]
  EC50: 0.8 nM
  Emax: 50%
2.0 mg and 5.0 mg
  moderate somnolence: Two TEAEs of moderate somnolence
5.0 mg
  moderate balance disorder: 1 TEAE of moderate balance disorder
0.5-5.0 mg oral QD 12 days
  concomitant medications or physical examination findings: No consistent differences
  mean QTcF increase: No clinically relevant increase
  severe TEAEs or SAEs: No severe TEAEs or serious adverse events (SAEs) occurred
  suicidal ideation or behaviors (C-SSRS): No positive responses
5/40 participants
  participants with TEAEs of moderate severity: 12.5%
34/40 participants
  participants with TEAEs of mild severity: 85.0%
In 5/40 participants
  number of TEAEs of moderate severity: 6
[7]
  dizziness: 20.0%
  postural dizziness: 30.0%
Pooled placebo
  incidence of somnolence versus placebo: approximately twice as high as the placebo-treated participants
[2]
  EC50: 0.82 nM
  Emax: 89%
[3]
  EC50: 2.47 nM
  Emax: 113%
[4]
  EC50: 0.2 nM
  Emax: 96%
Sleep stages; Compound 1 1 mg/kg PO
  NREM onset: did not change NREM onset; also recorded: does not decrease time to Non-REM onset
Sleep stages; Compound 1 PO
  Active Wake: decreased Active Wake
  NREM: increased NREM
  Quiet Wake: only Compound 1 decreased Quiet Wake
[5]; once daily for fourteen days, tested 1 hr after last dose
  anxiolytic effect, chronic dosing: anxiolytic-like in rodents after acute and sub-chronic (14 days) dosing without any loss of effect
[5]; oral
  effect compared with reference anxiolytic chlordiazepoxide: equivalent to what was demonstrated by the reference anxiolytic compound, chlordiazepoxide
[5]; oral, 0.1, 0.3 and 1 mg/kg
  distance traveled in the open arms: increased distance traveled in the open arms
alertness/sedation; 5.0 mg, 1 participant
  MOAA/S score: 2
alertness/sedation; 0.5-5.0 mg oral QD 12 days
  sedation versus placebo by MOAA/S: little to no impairment of alertness and no frank sedation; also recorded: did not demonstrate a difference from placebo in sedation
alertness/sedation; other participants at 5.0 mg and all other Cohorts
  MOAA/S score: above 3
